Results on 1 compound are retold here after article PMC6268439, “Tebrophen — An Old Polyphenol Drug with Anticancer Potential ^†” (Molecules, 2012).

Assay type in all cases: biochemical
For experiment [1], the target named is Lck (Homo sapiens, UniProt P06239). As to the kind of experiment: ELISA kinase assay with purified kinase expressed in Sf9, poly Glu:Tyr ([…]) substrate.
Experiment [2] concerns the target T1, Dipeptidyl peptidase IV (DPPIV/CD26) (Homo sapiens, UniProt P27487).
T1 construct: gene DPP4
In words: enzyme assay with H-Gly-Pro-pNA substrate; […] inhibition at […].

For experiment [3], the target named is T2, ZAP-70 (Homo sapiens, UniProt P43403).
T2 construct: gene ZAP70
T2 sequence (P43403 1-619): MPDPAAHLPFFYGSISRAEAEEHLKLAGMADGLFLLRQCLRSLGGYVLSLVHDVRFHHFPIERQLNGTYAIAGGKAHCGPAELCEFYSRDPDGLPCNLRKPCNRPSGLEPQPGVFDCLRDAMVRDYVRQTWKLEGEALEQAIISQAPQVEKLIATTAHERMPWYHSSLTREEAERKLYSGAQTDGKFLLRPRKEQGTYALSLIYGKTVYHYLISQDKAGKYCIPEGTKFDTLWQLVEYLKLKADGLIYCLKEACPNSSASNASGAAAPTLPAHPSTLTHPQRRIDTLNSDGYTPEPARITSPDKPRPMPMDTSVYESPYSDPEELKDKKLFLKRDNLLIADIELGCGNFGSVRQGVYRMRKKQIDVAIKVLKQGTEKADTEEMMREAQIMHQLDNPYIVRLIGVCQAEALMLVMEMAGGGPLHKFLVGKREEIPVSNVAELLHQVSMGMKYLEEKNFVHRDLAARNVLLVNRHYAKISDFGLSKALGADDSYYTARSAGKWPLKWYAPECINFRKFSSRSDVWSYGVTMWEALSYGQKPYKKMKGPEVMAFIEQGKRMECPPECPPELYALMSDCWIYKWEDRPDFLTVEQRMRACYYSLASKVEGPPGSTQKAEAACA
In words: ELISA kinase assay with purified kinase expressed in Sf9, poly Glu:Tyr ([…]) substrate. Background: ELISA stands for enzyme-linked immunosorbent assay.

T1 sequence (P27487 39-766): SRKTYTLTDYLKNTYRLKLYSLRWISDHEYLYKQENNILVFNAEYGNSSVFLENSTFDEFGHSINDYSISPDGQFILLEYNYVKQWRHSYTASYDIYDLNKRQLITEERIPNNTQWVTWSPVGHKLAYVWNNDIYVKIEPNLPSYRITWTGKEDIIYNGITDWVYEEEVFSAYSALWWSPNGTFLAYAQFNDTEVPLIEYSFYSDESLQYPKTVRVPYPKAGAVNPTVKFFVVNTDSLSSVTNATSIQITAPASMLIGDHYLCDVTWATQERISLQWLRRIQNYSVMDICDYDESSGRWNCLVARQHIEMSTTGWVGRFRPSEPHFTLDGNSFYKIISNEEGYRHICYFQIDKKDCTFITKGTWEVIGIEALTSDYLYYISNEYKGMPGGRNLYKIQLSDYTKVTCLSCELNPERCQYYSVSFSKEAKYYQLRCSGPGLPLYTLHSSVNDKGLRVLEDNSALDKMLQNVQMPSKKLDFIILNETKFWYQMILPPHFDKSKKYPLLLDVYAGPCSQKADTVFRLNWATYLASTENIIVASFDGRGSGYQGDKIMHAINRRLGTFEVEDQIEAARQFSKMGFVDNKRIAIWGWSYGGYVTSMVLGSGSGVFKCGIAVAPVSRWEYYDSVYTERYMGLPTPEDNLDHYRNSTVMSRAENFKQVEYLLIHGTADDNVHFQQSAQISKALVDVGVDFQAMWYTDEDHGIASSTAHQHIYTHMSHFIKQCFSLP
Lck, sequence (P06239 2-509): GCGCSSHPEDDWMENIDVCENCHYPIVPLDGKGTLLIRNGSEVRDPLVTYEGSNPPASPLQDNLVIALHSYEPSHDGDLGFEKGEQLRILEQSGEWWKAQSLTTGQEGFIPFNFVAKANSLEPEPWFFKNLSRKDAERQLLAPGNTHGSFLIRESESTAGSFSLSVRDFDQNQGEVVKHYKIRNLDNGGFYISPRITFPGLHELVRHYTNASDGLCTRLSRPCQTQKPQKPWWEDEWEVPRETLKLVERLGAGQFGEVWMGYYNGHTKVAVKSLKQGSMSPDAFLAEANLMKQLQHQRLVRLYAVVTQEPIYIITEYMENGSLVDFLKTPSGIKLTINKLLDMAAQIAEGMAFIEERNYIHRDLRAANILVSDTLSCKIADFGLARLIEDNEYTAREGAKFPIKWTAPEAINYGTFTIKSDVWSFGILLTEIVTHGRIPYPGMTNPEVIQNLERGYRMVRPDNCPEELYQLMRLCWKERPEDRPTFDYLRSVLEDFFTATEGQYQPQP

Consider `Oc1c(Br)cc(-c2cc(Br)c(O)c(Br)c2O)c(O)c1Br` [tebrophen, 3,3',5,5'-tetrabromobiphenyl-2,2',4,4'-tetrol], for which the concentration for half-maximal inhibition (IC50) in experiment [1] was found to be 16 µM; in experiment [3], 0.34 µM. For the same compound, in experiment [2], the inhibition at 80 µM was 41%.

In general, IC50 refers to the point on the concentration scale where inhibition reaches its midpoint. A low value points to inhibition by little substance. By inhibition is commonly meant the percentage by which the read-out fell short of the control.
